Counter-ions that a name gives are not always drawn.

The text below walks through data of patent publication US20100273770A1, “1, 2, 4 -OXADIAZOLE COMPOUNDS FOR THE TREATMENT OF AUTOIMMUNE DISEASES” (priority 2007, published 2010).

Series [1] deals with circulating lymphocytes. As to conditions: animals and man; cited from earlier work.
For series [2] the following is noted: clinical studies, first 24 hours of treatment; cited from earlier work.
The target in series [3] is T1, human S1P1 receptor (Homo sapiens, UniProt P21453).
T1 construct: expressed in transfected cells; membranes
T1 sequence (P21453 whole entry): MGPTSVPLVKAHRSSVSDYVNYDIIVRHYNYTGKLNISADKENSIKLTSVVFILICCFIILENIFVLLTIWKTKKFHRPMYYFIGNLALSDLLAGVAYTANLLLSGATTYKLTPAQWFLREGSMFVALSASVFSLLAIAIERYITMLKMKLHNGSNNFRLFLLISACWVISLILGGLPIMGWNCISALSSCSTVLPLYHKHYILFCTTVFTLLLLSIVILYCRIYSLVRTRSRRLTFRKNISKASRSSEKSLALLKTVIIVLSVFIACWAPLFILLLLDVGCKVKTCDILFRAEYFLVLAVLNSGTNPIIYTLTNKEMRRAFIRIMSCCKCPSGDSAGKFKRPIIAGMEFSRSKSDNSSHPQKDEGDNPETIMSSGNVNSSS
Description: S1P1 GTPγS assay. Type of series: biochemical. As to conditions: [35S]-GTPγS binding, human S1P1 rat hepatoma (RH7777) membranes, agonist; read-out: pEC50 (S1P1 GTPγS assay) (converted). The protocol: (§1) For membrane preparations all steps were performed at 4° C. Rat hepatoma cells stably expressing the human S1P1 receptor or Rat Basophilic Leukaemia cells (RBL) stably expressing human S1P3 receptor were grown to 80% confluency before being harvested into 10 ml Phospho-Buffered Saline (PBS) and centrifuged at 1200 rpm for 5 minutes. After removal of the supernatant, the pellet was re-suspended and cells were homogenised within a glass Waring blender for 2 bursts of 15 secs in 200 mls of buffer (50 mM HEPES, 1 mM leupeptin, 25 μg/ml bacitracin, 1 mM EDTA, 1 mM PMSF, 2 μM pepstatin A). The blender was plunged into ice for 5 mins after the first burst and 10-40 mins after the final burst to allow foam to dissipate. The material was then spun at 500 g for 20 mins and the supernatant spun for 36 mins at 48,000 g. The pellet was resuspended in the same buffer as above but without PMSF and pepstatin A. The material was then forced through a 0.6 mm needle, made up to the required volume, (usually ×4 the volume of the original cell pellet), aliquoted and stored frozen at −80° C.
as §1, with “All” for “For membrane preparations all”, “Cells” for “Rat hepatoma cells stably expressing the human S1P1 receptor or Rat Basophilic Leukaemia cells (RBL) stably expressing human S1P3 receptor were grown to 80% confluency before being harvested into 10 ml Phospho-Buffered Saline (PBS) and centrifuged at 1200 rpm for 5 minutes. After removal of the supernatant, the pellet was re-suspended and cells”
Human S1P1 rat hepatoma membranes (1.5 μg/well) were adhered to a wheatgerm agglutinin (WGA)-coated scintillation proximity assay (SPA) beads (0.125 mg/well) in assay buffer (HEPES 20 mM, MgCl2 10 mM, NaCl 100 mM and pH adjusted to 7.4 using KOH 5M, GDP 10 μM FAC (final assay concentration) and saponin 90 μg/ml FAC was also added).
After 30 minutes pre-coupling on ice the bead and membrane suspension was dispensed into a white Greiner polypropylene LV384-well plate (5 μl/well), containing 0.1 μl of the compound. 5 μl/well [^35S]-GTPγS (0.5 nM final radioligand conc) made up in assay buffer was then added to agonist plates. The final assay cocktail (10.1 μl) was then centrifuged at 1000 rpm for 5 minutes then read immediately on a Viewlux reader.
(§2) All test compounds were dissolved in DMSO at a concentration of 10 mM and were prepared in 100% DMSO using a 1 in 4 dilution step to provide 11 point dose response curves. The dilutions were transferred to the assay plates ensuring that the DMSO concentration was constant across the plate for all assays.
(§3) All data was normalized to the mean of 16 high and 16 low control wells on each plate. A four parameter curve fit was then applied.
S1P1 expressing RH7777 membranes (1.5 μg/well) membranes (1.5 μg/well) were homogenised by passing through a 23G needle. These were then adhered to WGA-coated SPA beads (0.125 mg/well) in assay buffer (HEPES 20 mM, MgCl2 10 mM, NaCl 100 mM and pH adjusted to 7.4 using KOH 5M). GDP 10 μM FAC and saponin 90 μg/ml FAC were also added
(§4) After 30 minutes precoupling on ice, the bead and membrane suspension was dispensed into white Greiner polypropylene LV 384-well plates (5 μl/well), containing 0.1 μl of compound. 5 μl/well [^35S]-GTPγS (0.5 nM for S1P1 or 0.3 nM for S1P3 final radioligand concentration) made in assay buffer was then added to the plates. The final assay cocktail (10.1 μl) was then sealed, spun on a centrifuge, then read immediately on a Viewlux instrument.
Background: GTPγS resists hydrolysis and so accumulates on activated G proteins.

Series [4] addresses T2, human S1P3 receptor (Homo sapiens, UniProt Q99500).
T2 construct: expressed in transfected cells; membranes
Kind of series: S1P3 GTPγS assay. The class given is biochemical. As to conditions: [35S]-GTPγS binding, S1P3 RBL-2H3 membranes, agonist; read-out: pEC50 (S1P3 GTPγS assay) (converted). The method, then: as §1
S1P3 membranes from rat basophilic leukaemia cells (RBL-2H3)(1.5 μg/well) were adhered to WGA-coated SPA beads (0.125 mg/well) in assay buffer (HEPES 20 mM, MgCl2 3 mM, NaCl 100 mM and pH adjusted to 7.4 using KOH 5M), GDP 10 μM FAC and saponin 90 μg/ml FAC was also added).
After 30 minutes pre-coupling on ice the bead and membrane suspension was dispensed into a white Greiner polypropylene LV384-well plate (5 μl/well), containing 0.1 μl of the compound. 5 μl/well [^35S]-GTPγS (0.5 nM final radioligand conc) made up in assay buffer was then added to agonist plates. The final assay cocktail (10.1 μl) was centrifuged at 1000 rpm for 5 minutes then read immediately on a Viewlux reader.
as §2, §3
S1P3 expressing RBL membranes (1.5 μg/well) were homogenised by passing through a 23G needle. These were then adhered to WGA-coated SPA beads (0.125 mg/well) in assay buffer (HEPES 20 mM, MgCl2 10 mM, NaCl 100 mM and pH adjusted to 7.4 using KOH 5M). GDP 10 μM FAC and saponin 90 μg/ml FAC were also added
as §4

T2 sequence (Q99500 whole entry): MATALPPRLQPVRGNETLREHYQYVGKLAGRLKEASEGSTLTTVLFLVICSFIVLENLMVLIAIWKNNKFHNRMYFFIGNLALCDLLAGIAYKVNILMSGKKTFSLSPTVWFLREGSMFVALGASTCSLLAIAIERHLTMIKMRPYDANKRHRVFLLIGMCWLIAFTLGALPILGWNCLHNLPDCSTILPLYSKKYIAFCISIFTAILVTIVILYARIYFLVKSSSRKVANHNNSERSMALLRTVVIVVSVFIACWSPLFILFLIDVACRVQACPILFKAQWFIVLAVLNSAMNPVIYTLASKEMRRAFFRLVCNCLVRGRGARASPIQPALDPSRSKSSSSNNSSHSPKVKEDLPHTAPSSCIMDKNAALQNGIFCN

On to `CCCCCCCCc1ccc(CCC(N)(CO)CO)cc1` [FTY720], for which the “effect on circulating lymphocytes” value in series [1] is recorded as “reduce circulating lymphocytes”. Further, the bradycardia on treatment result in series [2] is “bradycardia in the first 24 hours of treatment”.
As to `CC(C)Oc1ccc(-c2nc(-c3ccc4c(c3)CNC(CCC(=O)O)CO4)no2)cc1Cl` (centres unmarked) [Example 6, 3-[7-(5-{3-Chloro-4-[(1-methylethyl)oxy]phenyl}-1,2,4-oxadiazol-3-yl)-2,3,4,5-tetrahydro-1,4-benzoxazepin-3-yl]propanoic acid hydrochloride], the EC50 in series [3] is below 0.01 µM.
Same read-out and setting: as for `CC(C)Oc1ccc(-c2nc(-c3cccc4c3OCCNC4CCC(=O)O)no2)cc1C#N` (centres unmarked) [Example 14, 3-[9-(5-{3-cyano-4-[(1-methylethyl)oxy]phenyl}-1,2,4-oxadiazol-3-yl)-2,3,4,5-tetrahydro-1,4-benzoxazepin-5-yl]propanoic acid, formic acid salt], the figure is below 0.01 µM.
On the same count and under the same terms, as for `CC(C)Oc1ncc(-c2nc(-c3cccc4c3OCCNC4CCCC(=O)O)no2)cc1Cl` (centres unmarked) [Example 11, 4-[9-(5-{5-chloro-6-[(1-methylethyl)oxy]-3-pyridinyl}-1,2,4-oxadiazol-3-yl)-2,3,4,5-tetrahydro-1,4-benzoxazepin-5-yl]butanoic acid hydrochloride], the figure is below 0.1 µM.
As to `CC(C)Oc1ccc(-c2nc(-c3ccc4c(c3)CCCNC4CCCO)no2)cc1Cl` (centres unmarked) [Example 3, 3-[7-(5-{3-Chloro-4-[(1-methylethyl)oxy]phenyl}-1,2,4-oxadiazol-3-yl)-2,3,4,5-tetrahydro-1H-2-benzazepin-1-yl]-1-propanol hydrochloride], the EC50 in series [4] is above 10 µM.
Still for that read-out and setting: as for `CC(C)Oc1ccc(-c2nc(-c3ccc4c(c3)CCCNC4CCC(=O)O)no2)cc1Cl` (centres unmarked) [Example 2, 3-[7-(5-{3-Chloro-4-[(1-methylethyl)oxy]phenyl}-1,2,4-oxadiazol-3-yl)-2,3,4,5-tetrahydro-1H-2-benzazepin-1-yl]propanoic acid hydrochloride], the figure is above 10 µM; as for `CC(C)Oc1ccc(-c2nc(-c3ccc4c(c3)CCCNC4CCC(N)=O)no2)cc1Cl` (centres unmarked) [Example 1, 3-[7-(5-{3-chloro-4-[(1-methylethyl)oxy]phenyl}-1,2,4-oxadiazol-3-yl)-2,3,4,5-tetrahydro-1H-2-benzazepin-1-yl]propanamide], above 10 µM.
Regarding `CC(C)Oc1ccc(-c2nc(-c3cccc4c3OCCNC4CCCC(=O)O)no2)cc1C#N` (centres unmarked) [Example 10, 4-[9-(5-{3-cyano-4-[(1-methylethyl)oxy]phenyl}-1,2,4-oxadiazol-3-yl)-2,3,4,5-tetrahydro-1,4-benzoxazepin-5-yl]butanoic acid hydrochloride salt], the EC50 in series [3] is below 0.1 µM; in series [4], above 10 µM.
For `CC(C)Oc1ccc(-c2nc(-c3cccc4c3OCCNC4CCC(=O)O)no2)cc1Cl` (centres unmarked) [Example 13, 3-[9-(5-{3-Chloro-4-[(1-methylethyl)oxy]phenyl}-1,2,4-oxadiazol-3-yl)-2,3,4,5-tetrahydro-1,4-benzoxazepin-5-yl]propanoic acid, formic acid salt], the EC50 in series [3] is below 0.01 µM; in series [4] it was above 10 µM.
In the case of `CC(C)Oc1ccc(-c2nc(-c3ccc4c(c3)CNC(C(=O)O)CO4)no2)cc1Cl` (centres unmarked) [Example 5, 7-(5-{3-Chloro-4-[(1-methylethyl)oxy]phenyl}-1,2,4-oxadiazol-3-yl)-2,3,4,5-tetrahydro-1,4-benzoxazepine-3-carboxylic acid hydrochloride], in series [3], the EC50 was below 0.1 µM.
As for `CC(C)Oc1ccc(-c2nc(-c3cccc4c3OCCNC4CC(=O)O)no2)cc1C#N` (centres unmarked) [Example 8, [9-(5-{3-cyano-4-[(1-methylethyl)oxy]phenyl}-1,2,4-oxadiazol-3-yl)-2,3,4,5-tetrahydro-1,4-benzoxazepin-5-yl]acetic acid], the EC50 in series [4] was above 10 µM.
Consider `CC(C)Oc1ncc(-c2nc(-c3cccc4c3OCCNC4CC(=O)O)no2)cc1Cl` (centres unmarked) [Example 9, [9-(5-{5-Chloro-6-[(1-methylethyl)oxy]-3-pyridinyl}-1,2,4-oxadiazol-3-yl)-2,3,4,5-tetrahydro-1,4-benzoxazepin-5-yl]acetic acid], for which the figures for the EC50 in series [3] and in series [4] were below 0.1 µM and above 10 µM, respectively.
On the same counts, the results for `CC(C)Oc1ccc(-c2nc(-c3cccc4c3OCCNC4CCCC(=O)O)no2)cc1Cl` (centres unmarked) [Example 12, 4-[9-(5-{3-chloro-4-[(1-methylethyl)oxy]phenyl}-1,2,4-oxadiazol-3-yl)-2,3,4,5-tetrahydro-1,4-benzoxazepin-5-yl]butanoic acid hydrochloride] are below 0.01 µM and above 10 µM.
On the same counts, the results for `CC(C)Oc1ccc(-c2nc(-c3cccc4c3OCCNC4CC(=O)O)no2)cc1Cl` (centres unmarked) [Example 7, [9-(5-{3-Chloro-4-[(1-methylethyl)oxy]phenyl}-1,2,4-oxadiazol-3-yl)-2,3,4,5-tetrahydro-1,4-benzoxazepin-5-yl]acetic acid hydrochloride] are below 0.1 µM and above 10 µM.
